Values after ≈ are worked out from the molar mass of the structure shown. Values joined by “and” are separate entries in the source; they are usually repeats but may differ in a detail not shown here. Equal entries are not always repeated.
What was measured:
[1] = set-up: method as in doi:10.11895/j.issn.0253-3820.160428; conditions: cited from earlier work
anti-CYP mAb 6F1G10 = assay: homologous ic-ELISA, hapten 1 coating antigen, mAb 6F1G10; format: binding, mouse; conditions: hapten 1 as coating antigen
Procedure: (§1) The ic-ELISA procedure was executed according to previous studies. Each well of the ELISA plate was coated with 100 μL of coating antigen diluted with carbonate buffer (0.05 mol/L, pH 9.6) at 4 °C overnight. After washing three times with phosphate-buffered saline (PBS, 0.01 mol/L, pH 7.4) containing 1‰ Tween-20, the wells were blocked with 200 μL of 5% skim milk powder in PBS at 37 °C for two hours. After the same washing procedure, 50 μL of CYP standard solution and 50 μL of mAb were pipetted into each well and incubated at 37 °C for one hour. After washing five times, 100 μL per well of 0.5‰ horseradish peroxidase-labeled goat anti-mouse IgG antibody in PBS was added and incubated at 37 °C for one hour. After the wells were washed five times, 100 μL per well of fresh substrate solution (0.1 mg/mL 3,3′,5,5′-tetramethylbenzidine and 0.024‰ H2O2 in 0.1 M citrate acid buffer) was added to react at 37 °C for 15 min. Then, 50 μL per well of 0.2 mol/L H2SO4 was used to stop the reaction, and the absorbances were read at 450 nm with a microplate reader.
(§2) After five immunizations, the anti-serum of five mice was collected to determine the serum titer. All mouse serum had high titers ranging from 1:64,000 to 1:256,000. […] Then, the sensitivity of these monoclonal antibodies was evaluated by homologous ic-ELISA. […] The subtype of mAb 2G7H9 was determined as IgG2b by a kit. […]

anti-CYP mAb 2G9A8 = assay: homologous ic-ELISA, hapten 1 coating antigen, mAb 2G9A8; format: binding, mouse; conditions: hapten 1 as coating antigen
Procedure: as §1, §2

antibody against CYP = test system: antibody against CYP; set-up: method as in PMID 26965575; conditions: cited from earlier work

CC1(C)C(C=C(Cl)Cl)C1C(=O)OC(C#N)c1cccc(Oc2ccccc2)c1 (stereo not shown) [CYP, Cypermethrin]
sensitivity [1]: 5000 ng/mL
IC50 (anti-CYP mAb 6F1G10): 0.575 µg/mL (≈ 1.38 µM)
IC50 (anti-CYP mAb 2G9A8): 0.176 µg/mL (≈ 0.423 µM)
IC50 (antibody against CYP): 0.00259 µg/mL and 0.0026 µg/mL

From paper PMC9688530, “Development of Ic-ELISA and Colloidal Gold Lateral Flow Immunoassay for the Determination of Cypermethrin in Agricultural Samples” (Biosensors, 2022)
